Measured values published in US9062033B2, “Chemical compounds” (Rottapharm Biotech S.r.l., priority 2011, dated 2015).

Experiments:
[1] = biological target: T1, human OX2 receptors (Homo sapiens, UniProt O43614); assay: Antagonistic activity against human OX2 receptor, [Ca2+]i fluorimetry (Fluo-4NW) in transfected HEK-293 cells activated with orexin-B; assay type: cell-based; details: HEK-293 cells transfected with human recombinant OX2; orexin-B 10 nM; pKb = co-logarithm of apparent dissociation constant, modified Cheng Prusoff
T1 construct: expressed in transfected cells; host or cells: HEK-293 cells
T1 sequence (O43614 1-444): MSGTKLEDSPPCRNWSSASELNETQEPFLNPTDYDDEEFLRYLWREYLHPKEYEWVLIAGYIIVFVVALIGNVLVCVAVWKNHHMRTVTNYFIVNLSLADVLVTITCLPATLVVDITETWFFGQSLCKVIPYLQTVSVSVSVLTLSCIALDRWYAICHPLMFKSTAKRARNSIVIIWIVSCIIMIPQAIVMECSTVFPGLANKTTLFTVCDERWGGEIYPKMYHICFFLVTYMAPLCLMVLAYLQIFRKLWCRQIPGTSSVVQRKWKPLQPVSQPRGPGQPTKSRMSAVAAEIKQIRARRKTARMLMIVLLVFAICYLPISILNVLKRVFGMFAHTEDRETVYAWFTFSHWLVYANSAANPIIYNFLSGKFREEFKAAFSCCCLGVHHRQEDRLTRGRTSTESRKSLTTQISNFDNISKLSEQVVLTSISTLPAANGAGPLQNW
Protocol: (§1) In a typical experiment, the antagonistic activity against human OX1 and OX2 receptors is determined by using CHO e HEK-293 cells transfected with human recombinant OX1 and OX2 receptors respectively, seeded at density of 2 and 3×10^4 cells/well respectively in a 96 fluorimetry well plate. Thus the plate was loaded with the calcium dye (Fluo-4NW/probenecid in HBSS, Hepes 20 mM, pH 7.4; Invitrogen) at 37° C. for 60 min. Afterward the temperature was equilibrated at 22° C. for 15 min and the [Ca2+]i measured directly on the plate by using a fluorescent plate reader (CellLux Perkin Elmer).
(§2) Invention compounds were dissolved in DMSO, diluted in HBSS (DMSO, 0.3% final) and added to the wells. After 5 min CHO cells were activated with orexin-A, 3 nM while HEK-293 cells were activated with orexin-B, 10 nM.
(§3) The compounds, dissolved in DMSO and diluted in the medium (DMSO, 0.3% final), have been analysed in the 1 nM-1 μM concentration range (every concentration in duplicate). The antagonistic activity has been expressed as pKb (co-logarithm of the apparent dissociation constant calculated by using the modified Cheng Prusoff equation).
(§4) The results are expressed as percent of control specific […] response ((measured specific response/control specific agonist response)×100) obtained in the presence of the test compounds.
(§5) The IC50 values (concentration causing a half-maximal inhibition of the control specific agonist response) were determinated by non-linear regression analysis of the concentration curves generated with mean replicate values using hill equation curve fitting. The IC50 values are obtained by the arithmetical mean of at least two experiments. Compounds of the following example tested according to this example gave pKbs as follows: […]

[2] = biological target: T2, human OX1 receptors (Homo sapiens, UniProt O43613); assay: Antagonistic activity against human OX1 receptor, [Ca2+]i fluorimetry (Fluo-4NW) in transfected CHO cells activated with orexin-A; assay type: cell-based; details: CHO cells transfected with human recombinant OX1; orexin-A 3 nM; pKb = co-logarithm of apparent dissociation constant, modified Cheng Prusoff
T2 construct: expressed in transfected cells; host or cells: CHO cells
T2 sequence (O43613 1-425): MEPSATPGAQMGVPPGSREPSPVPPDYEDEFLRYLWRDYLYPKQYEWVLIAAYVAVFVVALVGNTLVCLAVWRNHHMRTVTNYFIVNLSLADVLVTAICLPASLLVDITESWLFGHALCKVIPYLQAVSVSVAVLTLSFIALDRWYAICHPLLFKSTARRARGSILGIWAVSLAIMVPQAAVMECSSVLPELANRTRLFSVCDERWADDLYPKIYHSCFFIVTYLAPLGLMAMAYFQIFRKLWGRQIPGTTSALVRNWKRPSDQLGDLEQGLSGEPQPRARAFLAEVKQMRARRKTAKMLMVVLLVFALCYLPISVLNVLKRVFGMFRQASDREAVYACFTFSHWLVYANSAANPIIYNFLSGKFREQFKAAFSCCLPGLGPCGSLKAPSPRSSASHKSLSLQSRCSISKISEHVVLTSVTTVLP
Protocol: as §1, §2, §3, §4, §5

| SMILES | Kb [1] [nM] | Kb [2] [nM] |
| --- | --- | --- |
| Cc1ccc(-c2ccc(C)nc2C(=O)N2CC3(CC3)C[C@H]2CNc2ccc(C(F)(F)F)cn2)c(F)c1 [Compound E4, (S)-(3-(2-fluoro-4-methylphenyl)-6-methylpyridin-2-yl)(6-(((5-(trifluoromethyl)pyridin-2-yl)amino)methyl)-5-azaspiro[2.4]heptan-5-yl)methanone] | 31.6 | 39.8 |
| Cc1ccc(-c2ncccn2)c(C(=O)N2CC3(CC3)C[C@H]2CNc2nc3ccccc3o2)n1 [Compound E9, (S)-(6-((benzo[d]oxazol-2-ylamino)methyl)-5-azaspiro[2.4]heptan-5-yl)(6-methyl-3-(pyrimidin-2-yl)pyridin-2-yl)methanone] | 25.1 | 0.631 |
| Cc1ccc(-c2ccc(F)cc2)c(C(=O)N2CC3(CC3)C[C@H]2CNc2ccc(C(F)(F)F)cn2)n1 [Compound 3f, (S)-(3-(4-fluorophenyl)-6-methylpyridin-2-yl)(6-(((5-(trifluoromethyl)pyridin-2-yl)amino)methyl)-5-azaspiro[2.4]heptan-5-yl)methanone] | 7.94 | 7.94 |
| Cc1ccc(-c2ncccn2)c(C(=O)N2CC3(CC3)C[C@H]2CNc2cc(C(F)(F)F)cc(C)n2)c1 [Compound 1m, (S)-(5-methyl-2-(pyrimidin-2-yl)phenyl)(6-(((6-methyl-4-(trifluoromethyl)pyridin-2-yl)amino)methyl)-5-azaspiro[2.4]heptan-5-yl)methanone] | 12.6 | 15.8 |
| O=C(c1cccc2c1OC(F)(F)O2)N1CC2(CC2)C[C@H]1CNc1ccc(C(F)(F)F)cn1 [Compound 1b, (S)-(2,2-difluorobenzo[d][1,3]dioxol-4-yl)(6-(((5-(trifluoromethyl)pyridin-2-yl)amino)methyl)-5-azaspiro[2.4]heptan-5-yl)methanone] | 63.1 | 79.4 |
| Cc1ccc(-c2ccccc2)c(C(=O)N2CC3(CC3)C[C@H]2CNc2ccc(C(F)(F)F)cn2)n1 [Compound 3b, (S)-(6-methyl-3-phenylpyridin-2-yl)(6-(((5-(trifluoromethyl)pyridin-2-yl)amino)methyl)-5-azaspiro[2.4]heptan-5-yl)methanone] | 10 | 2.51 |
| Cc1cccc(C(=O)N2CC3(CC3)C[C@H]2CNc2ccc(C(F)(F)F)cn2)c1-c1ncccn1 [Compound 1c, (S)-(3-methyl-2-(pyrimidin-2-yl)phenyl)(6-(((5-(trifluoromethyl)pyridin-2-yl)amino)methyl)-5-azaspiro[2.4]heptan-5-yl)methanone] | 200 | 12.6 |
| O=C(c1ncccc1-c1ccccc1)N1CC2(CC2)C[C@H]1CNc1ccc(C(F)(F)F)cn1 [Compound E5, (S)-(3-phenylpyridin-2-yl)(6-(((5-(trifluoromethyl)-pyridin-2-yl)amino)methyl)-5-azaspiro[2.4]heptan-5-yl)methanone] | 50.1 | 10 |
| Cc1cccc(NC[C@@H]2CC3(CC3)CN2C(=O)c2nc(C)sc2-c2ccccc2)n1 [Compound 2c, (S)-(2-methyl-5-phenylthiazol-4-yl)(6-(((6-methylpyridin-2-yl)amino)methyl)-5-azaspiro[2.4]heptan-5-yl)methanone] | 25.1 | 50.1 |
| Cc1nc(C(=O)N2CC3(CC3)C[C@H]2CNc2nc3ccccc3o2)c(-c2ccccc2)s1 [Compound 2b, (S)-(6-((benzo[d]oxazol-2-ylamino)methyl)-5-azaspiro[2.4]heptan-5-yl)(2-methyl-5-phenylthiazol-4-yl)methanone] | 2.51 | 0.794 |
| Cc1nc(C(=O)N2CC3(CC3)C[C@H]2CNc2nccc3ccccc23)c(-c2ccccc2)s1 [Compound 2e, (S)-(6-((isoquinolin-1-ylamino)methyl)-5-azaspiro[2.4]heptan-5-yl)(2-methyl-5-phenylthiazol-4-yl)methanone] | 2.51 | 2.51 |
| Cc1ccc(-c2ncccn2)c(C(=O)N2CC3(CC3)C[C@H]2CNc2ncc(Cl)cc2F)n1 [Compound 3c, (S)-(6-(((5-chloro-3-fluoropyridin-2-yl)amino)methyl)-5-azaspiro[2.4]heptan-5-yl)(6-methyl-3-(pyrimidin-2-yl)pyridin-2-yl)methanone] | 39.8 | 6.31 |
| Cc1nc(C(=O)N2CC3(CC3)C[C@H]2CNc2nc3ccc(Cl)cc3s2)c(-c2ccccc2)s1 [Compound 2i, (S)-(6-(((6-chlorobenzo[d]thiazol-2-yl)amino)methyl)-5-azaspiro[2.4]heptan-5-yl)(2-methyl-5-phenylthiazol-4-yl)methanone] | 31.6 | 12.6 |
| Cc1nc(C(=O)N2CC3(CC3)C[C@H]2CNc2ccc(C(F)(F)F)cn2)c(-c2ccccc2)s1 [Compound 2d, (S)-(2-methyl-5-phenylthiazol-4-yl)(6-(((5-(trifluoromethyl)pyridin-2-yl)amino)methyl)-5-azaspiro[2.4]heptan-5-yl)methanone] | 20 | 3.98 |
| Cc1ccc(-c2ccc(F)c(F)c2)c(C(=O)N2CC3(CC3)C[C@H]2CNc2ccc(C(F)(F)F)cn2)n1 [Compound E11, (S)-(3-(3,4-difluorophenyl)-6-methylpyridin-2-yl)(6-(((5-(trifluoromethyl)pyridin-2-yl)amino)methyl)-5-azaspiro[2.4]heptan-5-yl)methanone] | 20 | 12.6 |
| O=C(c1cc(Cl)ccc1-c1ncccn1)N1CC2(CC2)C[C@H]1CNc1ccc(C(F)(F)F)cn1 [Compound 1a, (S)-(5-chloro-2-(pyrimidin-2-yl)phenyl)(6-(((5-(trifluoromethyl)pyridin-2-yl)amino)methyl)-5-azaspiro[2.4]heptan-5-yl)methanone] | 63.1 | 7.94 |
| Cc1ccc(-n2ccc(C)n2)c(C(=O)N2CC3(CC3)C[C@H]2CNc2ccc(C(F)(F)F)cn2)n1 [Compound 3j, (S)-(6-methyl-3-(3-methyl-1H-pyrazol-1-yl)pyridin-2-yl)(6-(((5-(trifluoromethyl)pyridin-2-yl)amino)-methyl)-5-azaspiro[2.4]heptan-5-yl)methanone] | 15.8 | 1.26 |
| Cc1ccc(-c2ncccn2)c(C(=O)N2CC3(CC3)C[C@H]2CNc2ccc(C(F)(F)F)cn2)n1 [Compound 3a, (S)-(6-methyl-3-(pyrimidin-2-yl)pyridin-2-yl)(6-(((5-(trifluoromethyl)pyridin-2-yl)amino)methyl)-5-azaspiro[2.4]heptan-5-yl)methanone] | 31.6 | 3.98 |
| Cc1ccc(-c2ncccn2)c(C(=O)N2CC3(CC3)C[C@H]2CNc2ncc(C(F)(F)F)cc2F)n1 [Compound 3d, (S)-(6-(((3-fluoro-5-(trifluoromethyl)pyridin-2-yl)amino)methyl)-5-azaspiro[2.4]heptan-5-yl)(6-methyl-3-(pyrimidin-2-yl)pyridin-2-yl)methanone] | 10 | 3.98 |
